Experimental data from patent US10954246B2, “Compound of EOC315 Mod.I crystal form and preparation method thereof” (Taizhou EOC Pharma Co., Ltd., priority 2017, dated 2021).
Counter-ions that a name gives are not always drawn.

How the values were obtained:
[1] = tested on: PDGFR (Platelet-Derived Growth Factor Receptor) tyrosine kinase; details: cited from earlier work
[2] = molecular target: VEGFR-2 (Vascular Endothelial Growth Factor Receptor-2) tyrosine kinase (Homo sapiens, UniProt P35968); details: cited from earlier work
[3] = tested on: advanced gastric cancers or gastroesophageal junction (GEJ) cancers; assay: Efficacy study of EOC315 with capecitabine and cisplatinum in patients; format: in vivo, human; details: combination with capecitabine and cisplatinum
Text: After at most 6 cycles of cisplatinum treatment, both or either of capecitabine and EOC315 was delivered to a subject in a dosage previously used according to the toxic reaction conditions, until the disease progressed.
Forty-eight subjects in total were enrolled for this study. Forty-five subjects (94%) had tumor metastasis and thirty-five subjects (73%) had more than two metastatic sites thereinto. The livers of 26 subjects (54%) were involved due to the tumors. The major sites involved for the 26 subjects (54%) were gastroesophageal junctions, the major sites involved for 22 subjects (46%) were stomach, and the majority of the subjects got an ECOG score of 1 (n=41, 85%).
Thirty-nine subjects completed at least one course of treatment and got therapeutic effect evaluation. The objective response rate (ORR) was 67%. One subject (2.6%) achieved the complete response. […] It was evaluated that the objective response generally occurred in the previous two cycles of treatment and lasted for a long time, which was related closely to the duration of treatment received by the subjects. The anti-tumor effect was not related to tumor tissue type, the primary site, whether or not liver is involved, or the study center. Median progression-free survival (PFS) was 4.5 months. […] The median time to progression for patients showing tumor remission was 6.4 months. Median overall survival (OS) was estimated to be 7.8 months, and the 1-year survival rate was 33%.

[4] = Crystalline form after micronization (XRPD, DSC, HSM); format: physicochemical; details: micronized, D90≤15 μm
Protocol: The pressure of the micronization equipment was set to be ≥0.65 MPa to obtain an EOC315 crystalline form micropowder, with a particle size D90≤15 μm. The X-ray powder diffraction, DSC, and HSM data of the micronized sample were measured using the aforementioned methods, and the results are shown in FIG. 2, FIG. 4, and FIG. 6.

VEGFR-2 (Vascular Endothelial Growth Factor Receptor-2) tyrosine kinase, sequence (P35968 20-1356): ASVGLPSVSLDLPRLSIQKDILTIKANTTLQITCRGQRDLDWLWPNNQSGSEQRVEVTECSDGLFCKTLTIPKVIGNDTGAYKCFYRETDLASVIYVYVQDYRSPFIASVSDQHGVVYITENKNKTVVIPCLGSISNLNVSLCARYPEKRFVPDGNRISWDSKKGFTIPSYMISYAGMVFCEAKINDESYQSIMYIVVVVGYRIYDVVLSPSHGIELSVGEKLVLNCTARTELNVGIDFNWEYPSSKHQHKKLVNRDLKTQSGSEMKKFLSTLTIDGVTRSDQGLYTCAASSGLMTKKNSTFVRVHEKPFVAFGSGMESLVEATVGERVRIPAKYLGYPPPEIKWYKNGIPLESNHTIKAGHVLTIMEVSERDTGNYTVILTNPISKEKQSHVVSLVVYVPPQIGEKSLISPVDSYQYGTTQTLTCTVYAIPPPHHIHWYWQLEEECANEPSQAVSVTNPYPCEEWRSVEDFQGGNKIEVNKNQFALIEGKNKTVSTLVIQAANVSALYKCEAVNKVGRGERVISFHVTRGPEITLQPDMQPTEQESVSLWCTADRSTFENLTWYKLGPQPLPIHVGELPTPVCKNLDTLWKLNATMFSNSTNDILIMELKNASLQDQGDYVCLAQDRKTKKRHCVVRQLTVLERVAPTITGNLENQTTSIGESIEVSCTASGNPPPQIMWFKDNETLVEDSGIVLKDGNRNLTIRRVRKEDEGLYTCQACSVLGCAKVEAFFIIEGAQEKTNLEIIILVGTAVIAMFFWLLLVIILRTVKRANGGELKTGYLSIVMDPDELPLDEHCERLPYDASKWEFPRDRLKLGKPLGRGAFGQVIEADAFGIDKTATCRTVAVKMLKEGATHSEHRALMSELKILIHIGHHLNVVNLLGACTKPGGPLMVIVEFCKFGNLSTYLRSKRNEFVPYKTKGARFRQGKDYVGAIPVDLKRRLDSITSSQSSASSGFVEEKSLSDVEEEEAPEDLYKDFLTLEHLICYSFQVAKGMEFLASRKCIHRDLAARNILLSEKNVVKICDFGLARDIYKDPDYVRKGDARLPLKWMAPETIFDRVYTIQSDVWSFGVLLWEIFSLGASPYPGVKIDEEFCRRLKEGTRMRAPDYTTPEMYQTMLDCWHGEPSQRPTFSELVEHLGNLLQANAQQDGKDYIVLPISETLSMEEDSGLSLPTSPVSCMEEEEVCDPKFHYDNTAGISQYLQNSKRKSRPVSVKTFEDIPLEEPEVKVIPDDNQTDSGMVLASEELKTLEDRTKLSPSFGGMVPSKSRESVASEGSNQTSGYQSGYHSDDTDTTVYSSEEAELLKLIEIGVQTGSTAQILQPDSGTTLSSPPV

Row | Structure (SMILES) | IC50 [1] [nM] | IC50 [2] [nM] | proportion of patients without tumor-progression within 6 months ([3]; Kaplan-Meier analysis) [%] | 1-year survival rate [3] [%] | median progression-free survival (PFS) [3] [months] | objective response rate (ORR) ([3]; 39 evaluable subjects) [%] | subjects with complete response ([3]; 39 evaluable subjects) [%] | subjects with partial response ([3]; 39 evaluable subjects) [%] | subjects with stable condition maintained more than 12 weeks ([3]; 39 evaluable subjects) [%] | median overall survival (OS) ([3]; estimated) [months] | median time to progression ([3]; patients showing tumor remission) [months] | crystalline form after micronization [4]
1 | CNC(=O)c1cc(OCc2nnc(Nc3ccc(Cl)cc3)c3ccoc23)ccn1 [EOC315, 4-(4-chloroanilino)-7-(2-methylaminocarbonyl-4-oxymethyl) pyridylfuro[2,3-d]pyridazine mesylate] | 15 | 6 | 52 | 33 | 4.5 | 67 | 2.6 | 64.1 | 28.2 | 7.8 | 6.4 | –
2 | CNC(=O)c1cc(OCc2nnc(Nc3ccc(Cl)cc3)c3ccoc23)ccn1 [micronized EOC315] | – | – | – | – | – | – | – | – | – | – | – | remained unchanged
